Results: PMC5218480 (PLoS ONE, 2017)

Tested on: MV-4-11 cells
Test: Gene expression microarray analysis (Affymetrix PrimeView) and GSEA
Format: cell-based, human
Set-up: RFU PODN (11730768_x_at) / Fold change /veh PODN (11730768_x_at) / RFU LINC00158 (11744669_a_at) / Fold change /veh LINC00158 (11744669_a_at) / RFU DUSP10 (11751237_a_at) / Fold change /veh DUSP10 (11751237_a_at) / RFU ID3 (11757404_x_at) / Fold change /veh ID3 (11757404_x_at) / RFU PLEKHG5 (11737974_s_at) / Fold change /veh PLEKHG5 (11737974_s_at) / RFU LRRC4B (11730491_at) / Fold change /veh LRRC4B (11730491_at) / RFU GIMAP4 (11747438_a_at) / Fold change /veh GIMAP4 (11747438_a_at) / RFU KRT8 (11758183_x_at) / Fold change /veh KRT8 (11758183_x_at) / RFU CNN1 (11734310_a_at) / Fold change /veh CNN1 (11734310_a_at) / RFU VPS37D (11726825_at) / Fold change /veh VPS37D (11726825_at) / RFU C10orf10 (11716522_x_at) / Fold change /veh C10orf10 (11716522_x_at) / RFU KIR2DL2 /// KIR2DL4 /// KIR2DL5A /// KIR2DL5B /// KIR2DS1 /// KIR2DS2 /// KIR2DS3 /// KIR2DS4 /// KIR3DL3 /// KIR3DL3 /// KIR3DS1 (11738374_at) / Fold change /veh KIR2DL2 /// KIR2DL4 /// KIR2DL5A /// KIR2DL5B /// KIR2DS1 /// KIR2DS2 /// KIR2DS3 /// KIR2DS4 /// KIR3DL3 /// KIR3DL3 /// KIR3DS1 (11738374_at) / RFU C1QL1 (11718748_at) / Fold change /veh C1QL1 (11718748_at) / RFU TMPRSS4 (11747572_a_at) / Fold change /veh TMPRSS4 (11747572_a_at) / RFU HAMP (11756126_x_at) / Fold change /veh HAMP (11756126_x_at) / RFU RNFT2 (11725882_a_at) / Fold change /veh RNFT2 (11725882_a_at) / RFU NR4A2 (11747474_a_at) / Fold change /veh NR4A2 (11747474_a_at) / RFU ABCC12 (11746883_a_at) / Fold change /veh ABCC12 (11746883_a_at) / RFU TMEM136 (11760407_x_at) / Fold change /veh TMEM136 (11760407_x_at) / RFU CLDN22 /// WWC2 (11732394_at) / Fold change /veh CLDN22 /// WWC2 (11732394_at) / RFU HLA-DPB1 (11760878_x_at) / Fold change /veh HLA-DPB1 (11760878_x_at) / RFU SPINT1 (11716480_a_at) / Fold change /veh SPINT1 (11716480_a_at) / RFU GAP43 (11754022_s_at) / Fold change /veh GAP43 (11754022_s_at) / RFU A4GNT (11735810_at) / Fold change /veh A4GNT (11735810_at) / RFU PRB3 (11715151_x_at) / Fold change /veh PRB3 (11715151_x_at) / RFU TUBB4B (11761932_at) / Fold change /veh TUBB4B (11761932_at) / RFU CAPN14 (11732068_a_at) / Fold change /veh CAPN14 (11732068_a_at) / RFU TMCC2 (11721928_a_at) / Fold change /veh TMCC2 (11721928_a_at) / RFU IRGQ (11745062_a_at) / Fold change /veh IRGQ (11745062_a_at) / RFU FAM174B (11720279_a_at) / Fold change /veh FAM174B (11720279_a_at) / RFU TMPRSS4 (11748680_a_at) / Fold change /veh TMPRSS4 (11748680_a_at) / RFU FAM212B (11763350_a_at) / Fold change /veh FAM212B (11763350_a_at) / RFU PLEKHG5 (11743358_a_at) / Fold change /veh PLEKHG5 (11743358_a_at) / RFU ZSCAN30 (11745921_a_at) / Fold change /veh ZSCAN30 (11745921_a_at) / RFU CMKLR1 (11741424_a_at) / Fold change /veh CMKLR1 (11741424_a_at) / RFU LOC101060620 /// MAPK8IP1 (11723275_at) / Fold change /veh LOC101060620 /// MAPK8IP1 (11723275_at) / RFU SPTSSB (11747773_x_at) / Fold change /veh SPTSSB (11747773_x_at) / RFU PRSS12 (11739890_at) / Fold change /veh PRSS12 (11739890_at) / RFU BIN1 (11741810_x_at) / Fold change /veh BIN1 (11741810_x_at) / RFU WNT11 (11732464_a_at) / Fold change /veh WNT11 (11732464_a_at) / RFU C10orf10 (11716521_a_at) / Fold change /veh C10orf10 (11716521_a_at) / RFU C5orf56 (11738089_at) / Fold change /veh C5orf56 (11738089_at) / RFU CYB561 (11721691_x_at) / Fold change /veh CYB561 (11721691_x_at) / RFU ANKRD19P (11752326_a_at) / Fold change /veh ANKRD19P (11752326_a_at) / RFU OR2T12 /// OR2T33 /// OR2T8 (11738714_s_at) / Fold change /veh OR2T12 /// OR2T33 /// OR2T8 (11738714_s_at) / RFU VCAN (11748164_a_at) / Fold change /veh VCAN (11748164_a_at) / RFU JSRP1 (11732532_at) / Fold change /veh JSRP1 (11732532_at) / RFU KRTAP10-11 (11738290_x_at) / Fold change /veh KRTAP10-11 (11738290_x_at) / RFU MYO3A (11730013_a_at) / Fold change /veh MYO3A (11730013_a_at) / RFU EBF3 (11725865_a_at) / Fold change /veh EBF3 (11725865_a_at) / RFU CAMK2N1 (11719241_x_at) / Fold change /veh CAMK2N1 (11719241_x_at) / RFU C5orf56 (11738088_a_at) / Fold change /veh C5orf56 (11738088_a_at) / RFU OLFML3 (11715873_a_at) / Fold change /veh OLFML3 (11715873_a_at) / RFU LOC100653217 /// NTM (11731650_a_at) / Fold change /veh LOC100653217 /// NTM (11731650_a_at) / RFU MAPK11 (11762145_a_at) / Fold change /veh MAPK11 (11762145_a_at) / RFU FIZ1 (11724087_x_at) / Fold change /veh FIZ1 (11724087_x_at) / RFU OASL (11726364_x_at) / Fold change /veh OASL (11726364_x_at) / RFU SOX15 (11748057_x_at) / Fold change /veh SOX15 (11748057_x_at) / RFU CD79A (11719716_a_at) / Fold change /veh CD79A (11719716_a_at) / RFU HIST1H1D (11736915_at) / Fold change /veh HIST1H1D (11736915_at) / RFU CASKIN2 (11723855_a_at) / Fold change /veh CASKIN2 (11723855_a_at) / RFU LOC730098 (11760151_x_at) / Fold change /veh LOC730098 (11760151_x_at) / RFU OR4N2 (11742367_at) / Fold change /veh OR4N2 (11742367_at) / RFU PRRT2 (11749266_a_at) / Fold change /veh PRRT2 (11749266_a_at) / RFU SNX32 (11753110_a_at) / Fold change /veh SNX32 (11753110_a_at) / RFU CDHR5 (11726645_a_at) / Fold change /veh CDHR5 (11726645_a_at) / RFU RCAN1 (11760418_a_at) / Fold change /veh RCAN1 (11760418_a_at) / RFU FAM167A (11723789_a_at) / Fold change /veh FAM167A (11723789_a_at) / RFU FAM26E (11764081_at) / Fold change /veh FAM26E (11764081_at) / RFU ISYNA1 (11749810_s_at) / Fold change /veh ISYNA1 (11749810_s_at) / RFU ACY1 (11761880_at) / Fold change /veh ACY1 (11761880_at) / RFU 11764098_at / Fold change /veh 11764098_at / RFU SAMD14 (11745864_x_at) / Fold change /veh SAMD14 (11745864_x_at) / RFU NPB (11741838_a_at) / Fold change /veh NPB (11741838_a_at) / RFU TMPRSS6 (11731388_a_at) / Fold change /veh TMPRSS6 (11731388_a_at) / RFU KRTAP10-2 (11738614_at) / Fold change /veh KRTAP10-2 (11738614_at) / RFU ARHGAP8 /// PRR5-ARHGAP8 (11727945_x_at) / Fold change /veh ARHGAP8 /// PRR5-ARHGAP8 (11727945_x_at) / RFU KRTAP5-7 /// NADSYN1 (11734609_at) / Fold change /veh KRTAP5-7 /// NADSYN1 (11734609_at) / RFU RASL12 (11751679_a_at) / Fold change /veh RASL12 (11751679_a_at) / RFU CDKN2B (11736163_a_at) / Fold change /veh CDKN2B (11736163_a_at) / RFU PRF1 (11729649_at) / Fold change /veh PRF1 (11729649_at) / RFU, ZNF638 /// ZNF638-IT1 / Fold change vs veh, ZNF638 /// ZNF638-IT1 / RFU, PANK3 / Fold change vs veh, PANK3 / RFU, SH3YL1 / Fold change vs veh, SH3YL1 / RFU, ZEB2 / Fold change vs veh, ZEB2 / RFU, NRIP1 / Fold change vs veh, NRIP1 / RFU, PTTG1IP / Fold change vs veh, PTTG1IP / RFU, CAPN2 / Fold change vs veh, CAPN2 / RFU, MED14 / Fold change vs veh, MED14 / RFU, SNORA58 / Fold change vs veh, SNORA58 / RFU, C1orf63 / Fold change vs veh, C1orf63 / RFU, LRRFIP1 / Fold change vs veh, LRRFIP1 / RFU, NDUFAF7 / Fold change vs veh, NDUFAF7 / RFU, SLC12A2 / Fold change vs veh, SLC12A2 / RFU, IBTK / Fold change vs veh, IBTK / RFU, ESF1 / Fold change vs veh, ESF1 / Fold change vs veh, TMEM50B / RFU, TAOK1 / Fold change vs veh, TAOK1 / RFU, ACBD3 / Fold change vs veh, ACBD3 / RFU, TMA16 / Fold change vs veh, TMA16 / RFU, RWDD3 / Fold change vs veh, RWDD3 / RFU, BCAT1 / Fold change vs veh, BCAT1 / RFU, EDEM3 / Fold change vs veh, EDEM3 / RFU, TMEM33 / Fold change vs veh, TMEM33 / RFU, WDR75 / Fold change vs veh, WDR75 / RFU, AHCTF1 / Fold change vs veh, AHCTF1 / RFU, TFRC / Fold change vs veh, TFRC / RFU, ZDHHC17 / Fold change vs veh, ZDHHC17 / RFU, NOM1 / Fold change vs veh, NOM1 / RFU, ARL8B / Fold change vs veh, ARL8B / RFU, ZBTB11 / Fold change vs veh, ZBTB11 / RFU, TAMM41 / Fold change vs veh, TAMM41 / RFU, KIAA1704 /// LOC100996395 / Fold change vs veh, KIAA1704 /// LOC100996395 / RFU, ING1 / Fold change vs veh, ING1 / RFU, TRMT61B / Fold change vs veh, TRMT61B / RFU, FUBP3 / Fold change vs veh, FUBP3 / RFU, TP53 / Fold change vs veh, TP53 / RFU, TNKS2 / Fold change vs veh, TNKS2 / RFU, ZFP14 / Fold change vs veh, ZFP14 / RFU, ACTR2 / Fold change vs veh, ACTR2 / RFU, PPP3R1 / Fold change vs veh, PPP3R1 / RFU, PIK3R1 / Fold change vs veh, PIK3R1 / RFU, HNRNPA1 / Fold change vs veh, HNRNPA1 / RFU, RNF170 / Fold change vs veh, RNF170 / RFU, ZNF28 / Fold change vs veh, ZNF28 / RFU, RNGTT / Fold change vs veh, RNGTT / RFU, OGT / Fold change vs veh, OGT / RFU, BRD1 / Fold change vs veh, BRD1 / RFU, MARS / Fold change vs veh, MARS / RFU, ZNF655 / Fold change vs veh, ZNF655 / RFU, FAHD1 / Fold change vs veh, FAHD1 / RFU, BDP1 / Fold change vs veh, BDP1 / RFU, LRRCC1 / Fold change vs veh, LRRCC1 / RFU, ARID1A / Fold change vs veh, ARID1A / RFU, ZNF146 / Fold change vs veh, ZNF146 / RFU, ZNF330 / Fold change vs veh, ZNF330 / RFU, GPN3 / Fold change vs veh, GPN3 / RFU, C9orf123 / Fold change vs veh, C9orf123 / RFU, N4BP2L2 / Fold change vs veh, N4BP2L2 / RFU, ARFIP1 / Fold change vs veh, ARFIP1 / RFU, FAM179B / Fold change vs veh, FAM179B / RFU, BCL10 / Fold change vs veh, BCL10 / RFU, UHRF1BP1L / Fold change vs veh, UHRF1BP1L / RFU, BET1 / Fold change vs veh, BET1 / RFU, CNOT2 / Fold change vs veh, CNOT2 / RFU, ZNF268 / Fold change vs veh, ZNF268 / Fold change vs veh, ZNF507 / RFU, DGCR2 / Fold change vs veh, DGCR2 / RFU, WDSUB1 / Fold change vs veh, WDSUB1 / Fold change vs veh, HSP90B1 /// MIR3652 / RFU, ADSS / Fold change vs veh, ADSS / RFU, GK / Fold change vs veh, GK / RFU, ZNF148 / Fold change vs veh, ZNF148 / RFU, TAF9 / Fold change vs veh, TAF9 / RFU, SLC1A5 / Fold change vs veh, SLC1A5 / RFU, SLMO2 / Fold change vs veh, SLMO2 / RFU, ABCC4 / Fold change vs veh, ABCC4 / RFU, LOC101060439 /// RAP1B / Fold change vs veh, LOC101060439 /// RAP1B / RFU, RFX7 / Fold change vs veh, RFX7 / RFU, GTPBP10 / Fold change vs veh, GTPBP10 / RFU, CNEP1R1 / Fold change vs veh, CNEP1R1 / RFU, BIVM-ERCC5 /// ERCC5 / Fold change vs veh, BIVM-ERCC5 /// ERCC5 / RFU, ILF3 / Fold change vs veh, ILF3 / RFU 11762660_at / Fold change /veh 11762660_at / RFU VCAN (11757783_s_at) / Fold change /veh VCAN (11757783_s_at) / RFU DDX43 (11728927_at) / Fold change /veh DDX43 (11728927_at) / RFU KRT8 (11758188_x_at) / Fold change /veh KRT8 (11758188_x_at) / RFU NKD1 (11759106_at) / Fold change /veh NKD1 (11759106_at) / RFU SRD5A1 (11742802_a_at) / Fold change /veh SRD5A1 (11742802_a_at) / RFU TPSAB1 /// TPSB2 (11721975_s_at) / Fold change /veh TPSAB1 /// TPSB2 (11721975_s_at) / RFU GSTM3 (11746129_a_at) / Fold change /veh GSTM3 (11746129_a_at) / RFU IL23R (11737362_x_at) / Fold change /veh IL23R (11737362_x_at) / RFU TMEM51 (11727254_a_at) / Fold change /veh TMEM51 (11727254_a_at) / RFU PIWIL2 (11732686_x_at) / Fold change /veh PIWIL2 (11732686_x_at) / RFU ORM1 (11744905_x_at) / Fold change /veh ORM1 (11744905_x_at) / RFU CCDC152 (11743942_at) / Fold change /veh CCDC152 (11743942_at) / RFU ECM1 (11717891_a_at) / Fold change /veh ECM1 (11717891_a_at) / RFU IL23R (11748794_a_at) / Fold change /veh IL23R (11748794_a_at) / RFU TNFAIP8L3 (11732012_x_at) / Fold change /veh TNFAIP8L3 (11732012_x_at) / RFU MBOAT4 (11741988_at) / Fold change /veh MBOAT4 (11741988_at) / RFU 11764193_at / Fold change /veh 11764193_at / RFU TMEM53 (11763286_at) / Fold change /veh TMEM53 (11763286_at) / RFU MAGEB2 (11727129_at) / Fold change /veh MAGEB2 (11727129_at) / RFU TMEM200A (11744735_a_at) / Fold change /veh TMEM200A (11744735_a_at) / RFU CCDC152 (11751479_a_at) / Fold change /veh CCDC152 (11751479_a_at) / RFU FAM211A (11726209_a_at) / Fold change /veh FAM211A (11726209_a_at) / RFU RGS16 (11746705_a_at) / Fold change /veh RGS16 (11746705_a_at) / RFU VCAN (11755009_s_at) / Fold change /veh VCAN (11755009_s_at) / RFU RHOB (11743442_s_at) / Fold change /veh RHOB (11743442_s_at) / RFU RGS16 (11720943_a_at) / Fold change /veh RGS16 (11720943_a_at) / RFU RGS16 (11720944_at) / Fold change /veh RGS16 (11720944_at) / RFU, VPS4B / Fold change vs veh, VPS4B / RFU, CREB1 / Fold change vs veh, CREB1 / RFU, DNAJC13 / Fold change vs veh, DNAJC13 / RFU, GNAQ / Fold change vs veh, GNAQ / RFU, CDK5R1 / Fold change vs veh, CDK5R1 / RFU, ZRANB3 / Fold change vs veh, ZRANB3 / RFU, CUL4A / Fold change vs veh, CUL4A / RFU, CCNY / Fold change vs veh, CCNY / RFU, UFL1 / Fold change vs veh, UFL1 / RFU, COG3 / Fold change vs veh, COG3 / RFU, DIAPH2 / Fold change vs veh, DIAPH2 / RFU, SKA2 / Fold change vs veh, SKA2 / RFU, AFF3 / Fold change vs veh, AFF3 / RFU, LMF1 / Fold change vs veh, LMF1 / RFU, IPO11 / Fold change vs veh, IPO11 / RFU, DFFB / Fold change vs veh, DFFB / RFU, FOXP1 / Fold change vs veh, FOXP1 / RFU, CARD8 / Fold change vs veh, CARD8 / RFU, STRN3 / Fold change vs veh, STRN3 / RFU, ADK / Fold change vs veh, ADK / RFU, RASSF2 / Fold change vs veh, RASSF2 / RFU, WIPF1 / Fold change vs veh, WIPF1 / RFU, LARP1B / Fold change vs veh, LARP1B / RFU, RASA1 / Fold change vs veh, RASA1 / RFU, RB1 / Fold change vs veh, RB1 / RFU, PPFIA1 / Fold change vs veh, PPFIA1 / RFU, MAT2A / Fold change vs veh, MAT2A / RFU, CCT5 / Fold change vs veh, CCT5 / RFU, WDR92 / Fold change vs veh, WDR92 / RFU, CUX1 / Fold change vs veh, CUX1 / RFU, TTC7A / Fold change vs veh, TTC7A / RFU, TMEM135 / Fold change vs veh, TMEM135 / RFU, DEPTOR / Fold change vs veh, DEPTOR / RFU, CPM / Fold change vs veh, CPM / RFU, DNAJB6 / Fold change vs veh, DNAJB6 / RFU, CACNA2D3 / Fold change vs veh, CACNA2D3 / RFU, DTX4 / Fold change vs veh, DTX4 / RFU, TFCP2 / Fold change vs veh, TFCP2 / RFU, GMCL1 /// GMCL1P1 / Fold change vs veh, GMCL1 /// GMCL1P1 / RFU, AEBP2 / Fold change vs veh, AEBP2 / RFU, SNHG1 /// SNORD22 /// SNORD25 /// SNORD26 /// SNORD27 /// SNORD28 /// SNORD29 /// SNORD31 / Fold change vs veh, SNHG1 /// SNORD22 /// SNORD25 /// SNORD26 /// SNORD27 /// SNORD28 /// SNORD29 /// SNORD31 / Fold change (Aza/veh), C12orf56 (ProbeSet 11735607_a_at) / Fold change (ACY-1035/veh), C12orf56 (ProbeSet 11735607_a_at) / Fold change (Aza/veh), FGFR1OP (ProbeSet 11751329_s_at) / Fold change (ACY-1035/veh), FGFR1OP (ProbeSet 11751329_s_at) / Fold change (Aza/veh), VPS36 (ProbeSet 11739960_a_at) / Fold change (ACY-1035/veh), VPS36 (ProbeSet 11739960_a_at) / RFU SYPL1 (11715823_x_at) / Fold change /veh SYPL1 (11715823_x_at) / RFU IGFBP7 (11715501_s_at) / Fold change /veh IGFBP7 (11715501_s_at) / RFU REEP3 (11722064_at) / Fold change /veh REEP3 (11722064_at) / RFU IGLL1 (11728026_x_at) / Fold change /veh IGLL1 (11728026_x_at): dose or concentration left out as unconfirmed
Details: MV-4-11 cells, 48 hours

Nc1ccc(-c2cccs2)cc1NC(=O)c1ccc2c(c1)cc(C1CC1)n2CCN1CCOCC1 [ACY-1035]
Fold change /veh VCAN (11755009_s_at): 1.16
